Measurements reported in US11109593B2, “Isoxazolin-5-one derivative and herbicide containing same as active ingredient” (HOKKO CHEMICAL INDUSTRY CO., LTD., priority 2017, dated 2021).

Legend:
Assay type in all cases: in vivo
southern crabgrass [1] = assay: Test Example 3: herbicidal effect test by treatment of dry field farming soil (one day after seeding); conditions: 120 g/10a active ingredient, evaluated 14 days after treatment
How it was run: (§1)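 Herbicidal rate (%) equals 1 minus treated/untreated mean plant dry weight, times 100, taken 14 days after treatment in duplicate pots. Emulsion diluted in water was applied at 100 L per 10 ares (120 g a.i. per 10 ares) one day after sowing 20 seeds per species into the top 1 cm of alluvial soil.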

Amaranthus viridis [2] = assay: as above; conditions: 120 g/10a active ingredient, evaluated 14 days after treatment
How it was run: as §1

Chenopodium album [3] = assay: as above; conditions: 120 g/10a active ingredient, evaluated 14 days after treatment
How it was run: as §1

Echinochloa crus-galli [4] = assay: as above; conditions: 120 g/10a active ingredient, evaluated 14 days after treatment
How it was run: as §1

southern crabgrass [5] = assay: Test Example 4: herbicidal effect test by treatment of leave and stem in dry field farming (seven days after seeding); conditions: 120 g/10a active ingredient; emulsion sprayed seven days after seeding; evaluated 14 days after treatment
How it was run: (§2)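 Weeds were seeded at 20 seeds per species into the top 1 cm of alluvial upland soil in pots, then sprayed 7 days after seeding with water-diluted emulsifiable concentrate at 100 L/10 a, giving 120 g active ingredient/10 a. Duplicate pots; herbicidal rate (%) was 14 days post-treatment, from dry weight versus untreated.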

Amaranthus viridis [6] = assay: as above; conditions: 120 g/10a active ingredient; emulsion sprayed seven days after seeding; evaluated 14 days after treatment
How it was run: as §2

Chenopodium album [7] = assay: as above; conditions: 120 g/10a active ingredient; emulsion sprayed seven days after seeding; evaluated 14 days after treatment
How it was run: as §2

Echinochloa crus-galli [8] = assay: as above; conditions: 120 g/10a active ingredient; emulsion sprayed seven days after seeding; evaluated 14 days after treatment
How it was run: as §2

Scirpus juncoides [9] = assay: Test Example 2: herbicidal effect test by treatment during growing period in paddy rice cultivation (seven days after seeding); conditions: 120 g/10a active ingredient, assessed 14 days after treatment, dry weight vs untreated area
How it was run: (§3)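 Herbicidal rate (%) = {1 − treated/untreated mean plant dry weight} × 100, assessed in duplicate 14 days post-treatment. Emulsion formulations were diluted in water and dropped onto flooded (about 3 cm) paddy pots 7 days after seeding, giving 120 g a.i. per 10 ares. Plants were grown in a glass greenhouse.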

[10] = system: broad leaf weeds (Lindernia pyxidaria and Monochoria vaginalis); assay: as above; conditions: 120 g/10a active ingredient, assessed 14 days after treatment, dry weight vs untreated area
How it was run: as §3

Echinochloa crus-galli [11] = assay: as above; conditions: 120 g/10a active ingredient, assessed 14 days after treatment, dry weight vs untreated area
How it was run: as §3

Scirpus juncoides [12] = assay: Test Example 1: herbicidal effect test by treatment of rice paddy soil (immediately after seeding); conditions: 120 g/10a active ingredient, dry weight vs untreated area, 14 days after treatment
How it was run: (§4)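 Puddled, fertilized (N:P:K=17:17:17) paddy soil in Wagner pots; seeds sown 0–1 cm deep, flooded to about 3 cm. Emulsifiable formulations diluted in water and dropped into the water immediately after seeding at 120 g active ingredient per 10 ares; greenhouse. Herbicidal rate from dry weight vs untreated at 14 days.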

[13] = system: broad leaf weeds (Lindernia pyxidaria and Monochoria vaginalis); assay: as above; conditions: 120 g/10a active ingredient, dry weight vs untreated area, 14 days after treatment
How it was run: as §4

Echinochloa crus-galli [14] = assay: as above; conditions: 120 g/10a active ingredient, dry weight vs untreated area, 14 days after treatment
How it was run: as §4

| SMILES | herbicidal rate, southern crabgrass (southern crabgrass [1]) [%] | herbicidal rate, Amaranthus viridis (Amaranthus viridis [2]) [%] | herbicidal rate, Chenopodium album (Chenopodium album [3]) [%] | herbicidal rate, Echinochloa crus-galli (Echinochloa crus-galli [4]) [%] | herbicidal effect (herbicidal rate), southern crabgrass (southern crabgrass [5]) [%] | herbicidal effect (herbicidal rate), Amaranthus viridis (Amaranthus viridis [6]) [%] | herbicidal effect (herbicidal rate), Chenopodium album (Chenopodium album [7]) [%] | herbicidal effect (herbicidal rate), Echinochloa crus-galli (Echinochloa crus-galli [8]) [%] | Herbicidal rate (%) Scirpus juncoides (Scirpus juncoides [9]) [%] | Herbicidal rate (%) Lindernia pyxidaria [10] [%] | Herbicidal rate (%) Monochoria vaginalis [10] [%] | Herbicidal rate (%) Echinochloa crus-galli (Echinochloa crus-galli [11]) [%] | Herbicidal rate (%) Scirpus juncoides (Scirpus juncoides [12]) [%] | Herbicidal rate (%) Lindernia pyxidaria [13] [%] | Herbicidal rate (%) Monochoria vaginalis [13] [%] | Herbicidal rate (%) Echinochloa crus-galli (Echinochloa crus-galli [14]) [%] |
| --- | --- | --- | --- | --- | --- | --- | --- | --- | --- | --- | --- | --- | --- | --- | --- | --- |
| CCC(CC)Cn1oc(=O)c(Cc2ccccc2N(S(=O)(=O)C(F)(F)F)S(=O)(=O)C(F)(F)F)c1C [Compound 1-973] | 100 | 90 | 90 | 100 | 80 | 40 | 0 | 90 | 90 | 60 | 90 | 100 | 100 | 100 | 80 | 100 |
| Cc1c(Cc2ccccc2N(S(=O)(=O)C(F)(F)F)S(=O)(=O)C(F)(F)F)c(=O)on1CCC(C)C [Compound 1-974] | 90 | 100 | 100 | 90 | 50 | 40 | 40 | 90 | 90 | 90 | 90 | 100 | 90 | 90 | 80 | 100 |
| Cc1c(Cc2ccccc2N(S(=O)(=O)C(F)(F)F)S(=O)(=O)C(F)(F)F)c(=O)on1CCC(C)(C)C [Compound 1-975] | 90 | 90 | 90 | 80 | 0 | 50 | 40 | 50 | 80 | 70 | 80 | 100 | 90 | 90 | 80 | 100 |
| CCCCC(C)n1oc(=O)c(Cc2ccccc2N(S(=O)(=O)C(F)(F)F)S(=O)(=O)C(F)(F)F)c1C (centres unmarked) [Compound 1-977] | 80 | 70 | 50 | 80 | 80 | 60 | 80 | 90 | 90 | 80 | 90 | 100 | 90 | 100 | 100 | 100 |
| CCC(C)CCn1oc(=O)c(Cc2ccccc2N(S(=O)(=O)C(F)(F)F)S(=O)(=O)C(F)(F)F)c1C (centres unmarked) [Compound 1-978] | 90 | 90 | 90 | 80 | 50 | 40 | 40 | 60 | 60 | 50 | 60 | 100 | 90 | 90 | 80 | 100 |
| CCCCC(CC)Cn1oc(=O)c(Cc2ccccc2N(S(=O)(=O)C(F)(F)F)S(=O)(=O)C(F)(F)F)c1C (centres unmarked) [Compound 1-980] | 60 | 40 | 40 | 40 | 40 | 40 | 40 | 60 | 80 | 80 | 80 | 100 | 90 | 100 | 80 | 100 |
| C=CCn1oc(=O)c(Cc2ccccc2N(S(=O)(=O)C(F)(F)F)S(=O)(=O)C(F)(F)F)c1C [Compound 1-985] | 70 | 80 | 80 | 70 | 60 | 60 | 60 | 90 | 60 | 60 | 60 | 90 | 90 | 100 | 70 | 90 |
| C=CC(C)n1oc(=O)c(Cc2ccccc2N(S(=O)(=O)C(F)(F)F)S(=O)(=O)C(F)(F)F)c1C (centres unmarked) [Compound 1-986] | 80 | 60 | 60 | 100 | 90 | 60 | 40 | 90 | 90 | 40 | 70 | 90 | 90 | 90 | 80 | 90 |
